Reference: US20160251289A1, “USE OF ALKANE SULFONIC ACID FOR PREPARING PHENOLIC ALCOHOL” (ARKEMA FRANCE, priority 2013, published 2016)
Read-outs that look alike come from different tables or passages of the source.

Columns and labels:
[1] = for Solubility (mass %): phenol/acetone/water (50/50/5) weight mixture; for times more soluble than potassium sulfate: phenol/acetone/water (50/50/5)
Protocol: 25 g of test solvent are placed in a 50 mL three-necked flask equipped with a condenser, a thermometer and a magnetic stirrer. The solvent is brought to the desired temperature and the alkanesulfonic acid salt is then added portionwise until cloudiness appears, indicating saturation of the medium.
The solubility is calculated in the following manner:
% salt solubility=m/(m+M)×100
with m=mass of dissolved salt, M=mass of solvent
1. Solubility of the Salts in a Phenol/Acetone/Water (50/50/5) Weight Mixture:
A first measurement is taken at 20° C. at atmospheric pressure, and a second measurement is then taken at 60° C. […] 1.1 Potassium Salts

[2] = for Solubility (mass %): phenol/water (95/5) weight mixture; for times more soluble than potassium sulfate: phenol/water (95/5)
Protocol: Solubility of the Salts in a Phenol/Water (95/5) Weight Mixture:
A first measurement is taken at 55° C. at atmospheric pressure, and a second measurement is then taken at 100° C.

With `CS(=O)(=O)[O-].[K+]` [CH3SO3K, potassium methanesulfonate] the “Solubility (mass %)” value ([1]; 20° C., atmospheric pressure) was 0.80% mass %, the “Solubility (mass %)” value ([1]; 60° C.) was 0.80% mass % and the “times more soluble than potassium sulfate” value ([1]; at 20° C.) was “more than 6.7 times”. The “times more soluble than potassium sulfate” value ([1]; at 60° C.) was “more than 6.7 times”, the “Solubility (mass %)” value ([2]; 55° C., atmospheric pressure) was 1.90% mass % and the “Solubility (mass %)” value ([2]; 100° C.) was 2.40% mass %. For the same compound, the “times more soluble than potassium sulfate” value ([2]; printed as at 20° C.) was 15 times and the “times more soluble than potassium sulfate” value ([2]; printed as at 60° C.) was 8 times.
